In US5489575A, “Polypeptides and their use” (Boman; Hans G., priority 1991, dated 1996):
No end group written: not given here.

Key:
Assay type in all cases: cell-based
Bacillus megaterium = experiment: Inhibition zone assay repeated with Bacillus megaterium (Example 4); conditions: times higher than in relation to E. coli
Protocol: (§1) The antibacterial activity of the polypeptide of this invention was determined by inhibition zone assay as described by Hultmark et al. (Hultmark, D., Engstrom, A., Anderson, K., Steiner, H., Bennich, H. and Boman, H. G. (1983). Insect immunity. Attacins, a family of antibacterial proteins from Hyalophora cecropia. EMBO J. 2, 571-576).
(§2) Log-phase bacteria were grown to a density of 100 units on a Klett-summerson photoelectric colorimeter. They were diluted 50 times with LB medium and 50 μl of the bacteria suspension was mixed with 6 ml of 1.0% agarose in LB medium (w/v) and poured on the petri dishes (Falcon 1001 Optilux) with inner diameter 8.65 cm. For E. coli this procedure will give about 2×10^5 bacteria per plate.
The plates were left for 1 hour at room temperature, and holes with 3 mm diameter were made on the solidified agarose. 100 μl of fractions were dried in a speedvac and dissolved in 10 μl H2 O, of which 3 μl was applied to the holes. After 30 min diffusion time the plates were incubated at 30° C. overnight. The diameter of the inhibition zones were measured and the relative unit activity was calculated from a standard curve which was constructed on varying amount of Cecropin A versus activity. One microgram of Cecropin A corresponds to 1000 units of activity. […]

[1] = test system: Acinetobacter calcoaceticus Ac11; experiment: Inhibition zone assay of PR-peptide on different bacteria; conditions: strain Ac11
Protocol: as §1, §2
(§3) The plates were left for 1 hour at room temperature, and holes with 3 mm diameter were made on the solidified agarose. 100 μl of fractions were dried in a speedvac and dissolved in 10 μl H2 O, of which 3 μl was applied to the holes. After 30 min diffusion time the plates were incubated at 30° C. overnight. The diameter of the inhibition zones were measured and the relative unit activity was calculated from a standard curve which was constructed on varying amount of Cecropin A versus activity. One microgram of Cecropin A corresponds to 1000 units of activity.
(§4) The maximum concentration of PR-peptide was 2,5 mM and 3 μl was applied to each well in thin agarose plates seeded with test bacterium. LV values are obtained from a dilution serie and is the lowest concentration giving killing (Muirmark, D., Engstrem, A., Anderson, K., Steiner, H., Bennich, H. and Boman, H. G. (1983))

Bacillus megaterium Bm11 = experiment: as above; conditions: strain Bm11
Protocol: as §1, §2, §3, §4

Bacillus subtilis Bs11 = experiment: as above; conditions: strain Bs11
Protocol: as §1, §2, §3, §4

[2] = test system: Escherichia coli Bd2221/75; experiment: as above; conditions: strain Bd2221/75
Protocol: as §1, §2, §3, §4

Escherichia coli K12 D21 = experiment: as above; conditions: strain D21
Protocol: as §1, §2, §3, §4

Proteus vulgaris Pv11 = experiment: as above; conditions: strain Pv11
Protocol: as §1, §2, §3, §4

[3] = test system: Pseudomones aeruginose OT97; experiment: as above; conditions: strain OT97
Protocol: as §1, §2, §3, §4

[4] = test system: Salmonella typhimurium L12; experiment: as above; conditions: strain L12
Protocol: as §1, §2, §3, §4

[5] = test system: Staphylococcus aureus Cowan 1; experiment: as above; conditions: strain Cowan 1
Protocol: as §1, §2, §3, §4

Streptococcus pyrogenes = experiment: as above
Protocol: as §1, §2, §3, §4

[6] = lowest concentration giving killing, from dilution series
[7] = maximum concentration 2,5 mM, 3 μl per well, thin agarose plates

RRRPRPPYLPRPRPPPFFPPRLPPRIPPGFPPRFPPRFP [PR-peptide, bactericidal polypeptide isolated from pig small intestine]
average activity against Bacillus megaterium relative to E. coli (Bacillus megaterium): about 3 times | LC value [1, 6]: 3 µM | Max zone [1, 7]: 12,5 mm | LC value (Bacillus megaterium Bm11; [6]): 0,3 μM | Max zone (Bacillus megaterium Bm11; [7]): 17,4 mm | LC value (Bacillus subtilis Bs11; [6]): 15 µM | Max zone (Bacillus subtilis Bs11; [7]): 10,3 mm | LC value [2, 6]: 0,3 μM | Max zone [2, 7]: 17,6 mm | LC value (Escherichia coli K12 D21; [6]): 0,3 μM | Max zone (Escherichia coli K12 D21; [7]): 18,3 mm | LC value (Proteus vulgaris Pv11; [6]): 300 µM | Max zone (Proteus vulgaris Pv11; [7]): 3,5 mm | LC value [3, 6]: 200 µM | Max zone [3, 7]: 4,5 mm | LC value [4, 6]: 1 µM | Max zone [4, 7]: 15,2 mm | LC value [5, 6]: 200 µM | Max zone [5, 7]: 3,7 mm | LC value (Streptococcus pyrogenes; [6]): 2 µM | Max zone (Streptococcus pyrogenes; [7]): 14,9 mm
